Consider one substance from US10517889B2, “Modulators of SMAD7 expression” (Ionis Pharmaceuticals, Inc., priority 2017, dated 2019).

Data set [1] is described as follows: Plasma chemistry markers after oral gavage in beagle dogs (Example 12). The following applies: 200 mg by oral gavage for 4 weeks, day 30, in words.
For data set [2], the system named is human peripheral blood mononuclear cells (PBMCs). The data set can be described thus: Human PBMC activation assay, cytokine levels (IL-10, IL-6, MCP-1, TNF-α) in supernatant after 24 hours (Example 9). The following applies: human PBMCs, 24 hours, in words.
The nature of data set [3]: Organ weights after oral gavage in beagle dogs (Example 12). The following applies: 200 mg by oral gavage for 4 weeks, day 30, in words.
Method: Groups of 24-25 week old male beagle dogs were administered 200 mg Ionis human SMAD7 oligonucleotide by oral gavage once a week for 4 weeks. There were 4 animals per group. A control group of dogs received oral administration of distilled water. Dogs were sacrificed on day 30 approximately 48 hours after the final dose and organs and plasma were harvested for further analysis.
The subject of data set [4] is murine Smad7 mRNA. The data set can be described thus: Dose-dependent inhibition of murine Smad7 mRNA in bEND cells, electroporation (Example 5, Study 2). Type of data set: cell-based, mouse. The following applies: in words. Here is the method:
Many of the Ionis designed oligonucleotides as well as ION 736697/Mongersen are complementary to mouse Smad7 mRNA. […] After a treatment period of approximately 16 hours, the cells were washed and lyzed and RNA on 384-well Pall plates with DNase I treatment. Smad7 mRNA levels were measured by quantitative real-time PCR. Primer probe set RTS1114 (forward sequence […], designated herein as SEQ ID NO: 8; reverse sequence […], designated herein as SEQ ID NO: 9; probe sequence […], designated herein as SEQ ID NO: 10) was used to measure murine Smad7 mRNA levels. Smad7 mRNA levels were adjusted according to total RNA content, as measured by RIBOGREEN®. Results are presented as percent inhibition of Smad7 mRNA expression, relative to untreated control cells.
Many of the Ionis oligonucleotides had greater potency than ION 736697/Mongersen.

A short description of data set [5]: Plasma chemistry markers after subcutaneous administration in beagle dogs (Example 8). The following applies: 30 mg/kg subcutaneously, day 31, in words.
Method: Groups of 24-25 week old male beagle dogs were injected subcutaneously with 30 mg/kg ION Ionis oligonucleotide. There were 4 animals per group. Dogs were injected every two days for the first week (day 1, 3, and 5) and once weekly thereafter (days 8, 15, 22, and 29). A control group of dogs received subcutaneous injections of PBS. Dogs were sacrificed on day 31 approximately 48 hours after the final dose and organs and plasma were harvested for further analysis.
To evaluate the effect of Ionis SMAD7 oligonucleotides on liver and kidney function, plasma levels of transaminases, albumin, creatine and BUN were measured using an automated clinical chemistry analyzer (Toshiba 200FR Neo chemistry analyzer, Toshiba Co., Japan).
Data set [6] in a line: Pharmacokinetics: oligonucleotide concentration in tissues after oral gavage in beagle dogs (Example 12). Type of data set: in vivo. On the procedure:
There were 4 animals per group.
Canine tissue exposure following oral administration of the Ionis SMAD7 oligonucleotides was measured in various organs and intestinal tissues.
Plasma concentrations of Ionis oligonucleotides were also measured on Day 28 at various time points.

Data set [7] has as its system mouse Smad7 mRNA. The data set can be described thus: Murine Smad7 mRNA expression after oral administration in BALB/c mice (Example 11). Type of data set: in vivo. The following applies: orally 500 mg/kg/day for 3 weeks, in words. Here is the method: The objective of this study was to evaluate the efficacy of Ionis SMAD7 antisense oligonucleotides in BALB/c mice following daily oral administration. The Ionis oligonucleotides are cross-reactive with mouse Smad7 mRNA.
Groups of BALB/c mice were orally administered 500 mg/kg/day for 3 weeks of human Smad7 oligonucleotides, ION 790615, ION 798781, or ION 830025, or mouse Smad7 oligonucleotide, ION 772797 (a 3-10-3 cEt gapmer with phosphorothioate backbone and sequence […]; designated herein as SEQ ID NO: 2743). One group of mice was orally administered PBS daily for 3 weeks. Each group contained 4 mice.
To evaluate the efficacy of the oligonucleotides, murine Smad7 mRNA expression in the liver, kidneys, duodenum, ileum, and colon was measured using primer probe set RTS1114.

In data set [8] the test system is mouse Smad7 mRNA. The data set can be described thus: Murine Smad7 mRNA expression after subcutaneous administration in BALB/c mice (Example 10). Type of data set: in vivo. Conditions: 50 mg/kg subcutaneous once a week for 4 weeks, 24 hours after last dose. Here is the method:
The objective of this study was to evaluate the efficacy of Ionis SMAD7 antisense oligonucleotides compared to ION 736697/Mongersen in BALB/c mice following 4 weeks of treatment. Both ION 830025 and ION 798781 are cross-reactive with mouse Smad7 mRNA.
Groups of BALB/c mice were subcutaneously administered 50 mg/kg of Ionis SMAD7 oligonucleotides once a week for 4 weeks. Each group contained 4 mice. One group of mice was administered PBS once a week for 4 weeks. […]

For data set [9], the system named is human SMAD7 mRNA. Kind of data set: Dose-dependent inhibition of human SMAD7 mRNA expression in A431 cells, oligonucleotide added without transfection (Example 5, Study 1). Type of data set: cell-based. The following applies: SMAD7 mRNA, in words. On the procedure: The newly designed compounds disclosed herein are cEt-modified antisense oligonucleotides. […] The studies described below show a comparison of select cEt-modified gapmers and ION0736697/Mongersen.
A431 cells were plated in collagen I-coated 96-well plates in DMEM with […]. Immediately after plating, 0.08 μM, 0.25 μM, 0.74 μM, 2.22 μM, 6.67 μM, or 20.00 μM concentrations of antisense oligonucleotide were added. The plates were shaken briefly before incubating at 37° C. and 10% CO2. After a treatment period of approximately 48 hours, the cells were washed and lyzed and RNA on 384-well Pall plates with DNase I treatment. SMAD7 mRNA levels were measured by quantitative real-time PCR. Primer probe set RTS5062 was used to measure human SMAD7 mRNA levels. SMAD7 mRNA levels were adjusted according to total RNA content, as measured by RIBOGREEN®. Results are presented as percent inhibition of SMAD7 mRNA expression, relative to untreated control cells.
All Ionis oligonucleotides had greater potency than ION 736697/Mongersen.

The nature of data set [10]: Tissue and organ histopathology after oral gavage in CD-1 mice (Example 7). Type of data set: in vivo. Conditions: daily oral gavage 500 mg/kg for one month, in words. On the procedure: Groups of 7-8 week old male CD-1 mice were given an oral gavage dose once daily for 4 weeks of 500 mg/kg of Ionis SMAD7 oligonucleotides. Each group contained 8 mice. One group of male CD-1 mice was administered saline by oral gavage daily.
Histopathology evaluations were performed on the mice treated with Ionis oligonucleotides to evaluate any tissue damage in the liver (with gallbladder), kidneys, heart, spleen, thymus, mesenteric lymph nodes, and different parts of the GI tract, including duodenum, ileum, and colon (proximal and distal). Tissues were collected and fixed in 10% neutral-buffered formalin, embedded in paraffin, sectioned, and stained with hematoxylin and eosin. All the tissues were histologically unremarkable in all mice.

In data set [11] the test system is mouse Smad7 mRNA. The data set can be described thus: Pharmacology: mouse Smad7 mRNA expression in liver, kidney, duodenum, ileum and colon after subcutaneous administration in CD-1 mice (Example 6). Type of data set: in vivo. The following applies: 50 mg/kg subcutaneously twice a week for 7 weeks, in words. On the procedure:
Groups of 8-9 week old male CD-1 mice were injected subcutaneously twice a week for 7 weeks with 50 mg/kg of Ionis oligonucleotides (100 mg/kg/week dose). Each group contained 4 mice. One group of male CD-1 mice was injected subcutaneously twice a week for 7 weeks with PBS. Plasma was collected for analysis on day 28.
The pharmacological activity of the Ionis oligonucleotides in mice was assessed by measuring mouse Smad7 mRNA expression in liver, kidney, duodenum, ileum, and colon at necropsy.
Tissue samples from all mice were analyzed for Smad7 mRNA expression using the primer probe set HTS7555 (forward sequence […], designated SEQ ID NO: 2737; reverse sequence […], designated SEQ ID NO: 2738; probe sequence […], designated SEQ ID NO: 2739), which was normalized to mRNA levels of the housekeeping gene, GAPDH. One-way ANOVA with Dunnet's comparison test was used for statistical analysis.

Turning to “ION 830025 (antisense TTTGTAAATCGAAAGC; 3-10-3 cEt gapmer, phosphorothioate, further chemistry not given here) [sodium salt]”, the “Tolerability (plasma chemistry markers)” value is listed as “very well tolerated” in [1] and “well tolerated” in data set [5]. Further, the “Cytokine and chemokine production (immunostimulatory profile)” value in [2] was “minimal cytokine and chemokine production which was similar or less than the negative control ASO”. Besides, the “Tolerability (organ weights)” value in [3] is “very well tolerated”. Also, the “Potency compared with ION 736697/Mongersen” value in data set [4] is given as “more potent than ION 736697/Mongersen”. Also, in data set [6] (200 mg by oral gavage for 4 weeks, in words), the “Tissue accumulation of oligonucleotide” value was “Distal colon accumulation was detected”. Further, in [6] (200 mg oral gavage for 4 weeks, distal colon), the “Oligonucleotide concentration in tissues, Distal colon” value was 0.1 µg/g. Also, the “Oligonucleotide concentration in tissues, Duodenum” value in data set [6] (200 mg oral gavage for 4 weeks, duodenum) worked out at 0.8 µg/g. The “Oligonucleotide concentration in tissues, Ileum” value in data set [6] (200 mg oral gavage for 4 weeks, ileum) worked out at 0.3 µg/g. For the same substance, in [6] (200 mg oral gavage for 4 weeks, kidney), the “Oligonucleotide concentration in tissues, Kidney” value is 48.1 µg/g. Further, the “Oligonucleotide concentration in tissues, Liver” value in [6] (200 mg oral gavage for 4 weeks, liver) was 7.8 µg/g. In addition, in [6] (200 mg oral gavage for 4 weeks, proximal colon), the “Oligonucleotide concentration in tissues, Proximal colon” value is 0.2 µg/g. For the same substance, the “Efficacy in reducing Smad7 mRNA expression” value in data set [7] was “efficacious in reducing Smad7 mRNA expression”. The “Mouse Smad7 mRNA expression (% inhibition), Colon” value in data set [8] (colon) stood at 32 % inhibition. Also, the “Mouse Smad7 mRNA expression (% inhibition), Duodenum” value in data set [8] (duodenum) was 26 % inhibition. In addition, the “Mouse Smad7 mRNA expression (% inhibition), Ileum” value in data set [8] (ileum) came to 14 % inhibition. The “Mouse Smad7 mRNA expression (% inhibition), Kidney” value in data set [8] (kidney) came to 5 % inhibition. The “Mouse Smad7 mRNA expression (% inhibition), Liver” value in data set [8] (liver) came to 46 % inhibition. Also, the “Potency/efficacy compared with ION 736697/Mongersen” value in data set [9] is recorded as “more efficacious than ION 736697/Mongersen”. Also, the “Histopathology: oligonucleotide-related tissue alterations” value in [10] was “not associated with any antisense oligonucleotide-related tissue alterations”. The “Smad7 mRNA reduction in tissues” value in [11] was “significant Smad7 mRNA reduction in various tissues”.
